{"source": "paper PMC7490411", "about": "(Signal Transduction and Targeted Therapy, 2020)", "key": {"PIK3CA(Q546K)": {"test_system": "PIK3CA(Q546K)", "assay": "KINOMEscan", "assay_type": "binding", "conditions": "1000 nM"}, "ANKK1": {"test_system": "ANKK1", "assay": "KINOMEscan", "assay_type": "binding", "conditions": "1000 nM"}, "INSR": {"test_system": "INSR", "assay": "KINOMEscan", "assay_type": "binding", "conditions": "1000 nM"}, "PIK3CA(H1047L)": {"test_system": "PIK3CA(H1047L)", "assay": "KINOMEscan", "assay_type": "binding", "conditions": "1000 nM"}, "CDK11": {"test_system": "CDK11", "assay": "KINOMEscan", "assay_type": "binding", "conditions": "1000 nM"}, "MLK3": {"test_system": "MLK3", "assay": "KINOMEscan", "assay_type": "binding", "conditions": "1000 nM"}, "DRAK2": {"test_system": "DRAK2", "assay": "KINOMEscan", "assay_type": "binding", "conditions": "1000 nM"}, "STK35": {"test_system": "STK35", "assay": "KINOMEscan", "assay_type": "binding", "conditions": "1000 nM"}, "TAOK1": {"test_system": "TAOK1", "assay": "KINOMEscan", "assay_type": "binding", "conditions": "1000 nM"}, "RIPK5": {"test_system": "RIPK5", "assay": "KINOMEscan", "assay_type": "binding", "conditions": "1000 nM"}, "NEK2": {"test_system": "NEK2", "assay": "KINOMEscan", "assay_type": "binding", "conditions": "1000 nM"}, "HIPK4": {"test_system": "HIPK4", "assay": "KINOMEscan", "assay_type": "binding", "conditions": "1000 nM"}, "AKT3": {"test_system": "AKT3", "assay": "KINOMEscan", "assay_type": "binding", "conditions": "1000 nM"}, "[1]": {"test_system": "JAK2(JH1domain-catalytic)", "assay": "KINOMEscan", "assay_type": "binding", "conditions": "1000 nM"}, "GAK": {"test_system": "GAK", "assay": "KINOMEscan", "assay_type": "binding", "conditions": "1000 nM"}, "MARK4": {"test_system": "MARK4", "assay": "KINOMEscan", "assay_type": "binding", "conditions": "1000 nM"}, "RIOK3": {"test_system": "RIOK3", "assay": "KINOMEscan", "assay_type": "binding", "conditions": "1000 nM"}, "WNK3": {"test_system": "WNK3", "assay": "KINOMEscan", "assay_type": "binding", "conditions": "1000 nM"}, "SRPK2": {"test_system": "SRPK2", "assay": "KINOMEscan", "assay_type": "binding", "conditions": "1000 nM"}, "GRK4": {"test_system": "GRK4", "assay": "KINOMEscan", "assay_type": "binding", "conditions": "1000 nM"}, "[2]": {"test_system": "NK cells co-seeded with Mino cells", "assay": "IFN-γ secretion ELISA, NK cells co-cultured with Mino cells in presence of Rituximab", "assay_type": "cell-based, human", "conditions": "Mino co-culture; 0.1 to 3 μM"}, "DAPK2": {"test_system": "DAPK2", "assay": "KINOMEscan", "assay_type": "binding", "conditions": "1000 nM"}, "PHKG2": {"test_system": "PHKG2", "assay": "KINOMEscan", "assay_type": "binding", "conditions": "1000 nM"}, "Mino cells": {"test_system": "Mino cells", "assay": "NK-cell-mediated ADCC, LDH release cytotoxicity assay, Rituximab", "assay_type": "cell-based, human", "protocol": "The cytotoxicity of NK cells was measured using the CyQUANT™ LDH Cytotoxicity Assay Kit (Invitrogen™, #C20300) according to the manufacturer’s instructions. Briefly, enriched NK cells (6 × 10^5 /ml) were cultured with the same volume of Mino cell and SK-OV-3 cell (1-2 × 10^4 /ml) in a 96-well plate for 4 h with Rituximab and Herceptin (10 μg/mL) and CHMFL-BTK-85 or PCI32765 at 37°C in a humidified CO2 incubator prior to removal of the supernatant for lactate dehydrogenase (LDH) release measurements. Calculate % Cytotoxicity by using the following formula: %Cytotoxicity = (Compound-treated LDH activity-Spontaneous LDH activity)/(Maximum LDH activity-Spontaneous LDH activity)*100."}, "CDK4": {"test_system": "CDK4", "assay": "KINOMEscan", "assay_type": "binding", "conditions": "1000 nM"}, "PAK6": {"test_system": "PAK6", "assay": "KINOMEscan", "assay_type": "binding", "conditions": "1000 nM"}, "PLK3": {"test_system": "PLK3", "assay": "KINOMEscan", "assay_type": "binding", "conditions": "1000 nM"}, "CSNK1G1": {"test_system": "CSNK1G1", "assay": "KINOMEscan", "assay_type": "binding", "conditions": "1000 nM"}, "RET(V804M)": {"test_system": "RET(V804M)", "assay": "KINOMEscan", "assay_type": "binding", "conditions": "1000 nM"}, "[3]": {"test_system": "REC-1 cells bone marrow engraftment", "assay": "REC-1 cells bone marrow engrafted mouse model", "assay_type": "in vivo", "conditions": "REC-1 bone marrow engraftment", "protocol": "Five-week old female NOD-SCID mice were purchased from the Beijing Vital River Laboratory Animal Technology Co., Ltd (Beijing, China). All animals were housed in a specific pathogen free facility and used according to the animal care regulations of Hefei Institutes of Physical Science, Chinese Academy of Sciences. NOD-SCID mice were induced by intraperitoneal injection of cyclophosphamide (CTX) 50 mg/kg daily for two days. 8 million REC-1 cells in 0.3 mL RPMI1640 medium were injected by intravenous after 24 h. […] Mice were monitored daily and were euthanized when moribund or at early signs of hind limb paralysis."}, "PRKD1": {"test_system": "PRKD1", "assay": "KINOMEscan", "assay_type": "binding", "conditions": "1000 nM"}, "FGFR2": {"test_system": "FGFR2", "assay": "KINOMEscan", "assay_type": "binding", "conditions": "1000 nM"}, "PLK2": {"test_system": "PLK2", "assay": "KINOMEscan", "assay_type": "binding", "conditions": "1000 nM"}, "SRPK1": {"test_system": "SRPK1", "assay": "KINOMEscan", "assay_type": "binding", "conditions": "1000 nM"}, "DCAMKL1": {"test_system": "DCAMKL1", "assay": "KINOMEscan", "assay_type": "binding", "conditions": "1000 nM"}, "NLK": {"test_system": "NLK", "assay": "KINOMEscan", "assay_type": "binding", "conditions": "1000 nM"}, "CSNK1A1": {"test_system": "CSNK1A1", "assay": "KINOMEscan", "assay_type": "binding", "conditions": "1000 nM"}, "ERK5": {"test_system": "ERK5", "assay": "KINOMEscan", "assay_type": "binding", "conditions": "1000 nM"}, "YES": {"test_system": "YES", "assay": "KINOMEscan", "assay_type": "binding", "conditions": "1000 nM"}, "[4]": {"test_system": "EGFR(L747-S752del, P753S)", "assay": "KINOMEscan", "assay_type": "binding", "conditions": "1000 nM"}, "CAMKK2": {"test_system": "CAMKK2", "assay": "KINOMEscan", "assay_type": "binding", "conditions": "1000 nM"}, "GRK7": {"test_system": "GRK7", "assay": "KINOMEscan", "assay_type": "binding", "conditions": "1000 nM"}, "MST1": {"test_system": "MST1", "assay": "KINOMEscan", "assay_type": "binding", "conditions": "1000 nM"}, "CASK": {"test_system": "CASK", "assay": "KINOMEscan", "assay_type": "binding", "conditions": "1000 nM"}, "IRAK1": {"test_system": "IRAK1", "assay": "KINOMEscan", "assay_type": "binding", "conditions": "1000 nM"}, "TNK2": {"test_system": "TNK2", "assay": "KINOMEscan", "assay_type": "binding", "conditions": "1000 nM"}, "PIP5K1A": {"test_system": "PIP5K1A", "assay": "KINOMEscan", "assay_type": "binding", "conditions": "1000 nM"}}}
{"compound": "C=CC(=O)Nc1cc(Nc2cc(-c3cccc(NC(=O)c4cc5c(s4)CCCC5)c3C)cn(C)c2=O)ccc1N1CCN(CC)CC1", "note": "[CHMFL-BTK-85]", "values": [{"measurement": "Percent Control", "setting": "PIK3CA(Q546K)", "result": 100, "unit": "%"}, {"measurement": "Percent Control", "setting": "ANKK1", "result": 100, "unit": "%"}, {"measurement": "Percent Control", "setting": "INSR", "result": 96, "unit": "%"}, {"measurement": "Percent Control", "setting": "PIK3CA(H1047L)", "result": 100, "unit": "%"}, {"measurement": "Percent Control", "setting": "CDK11", "result": 82, "unit": "%"}, {"measurement": "Percent Control", "setting": "MLK3", "result": 91, "unit": "%"}, {"measurement": "Percent Control", "setting": "DRAK2", "result": 100, "unit": "%"}, {"measurement": "Percent Control", "setting": "STK35", "result": 100, "unit": "%"}, {"measurement": "Percent Control", "setting": "TAOK1", "result": 94, "unit": "%"}, {"measurement": "Percent Control", "setting": "RIPK5", "result": 98, "unit": "%"}, {"measurement": "Percent Control", "setting": "NEK2", "result": 99, "unit": "%"}, {"measurement": "Percent Control", "setting": "HIPK4", "result": 91, "unit": "%"}, {"measurement": "Percent Control", "setting": "AKT3", "result": 97, "unit": "%"}, {"measurement": "Percent Control", "setting": "[1]", "result": 100, "unit": "%"}, {"measurement": "Percent Control", "setting": "GAK", "result": 100, "unit": "%"}, {"measurement": "Percent Control", "setting": "MARK4", "result": 66, "unit": "%"}, {"measurement": "Percent Control", "setting": "RIOK3", "result": 100, "unit": "%"}, {"measurement": "Percent Control", "setting": "WNK3", "result": 100, "unit": "%"}, {"measurement": "Percent Control", "setting": "SRPK2", "result": 100, "unit": "%"}, {"measurement": "Percent Control", "setting": "GRK4", "result": 88, "unit": "%"}, {"measurement": "inhibition of Rituximab-induced IFN-γ secretion in NK cells", "setting": "[2]", "result": "no apparent inhibition"}, {"measurement": "Percent Control", "setting": "DAPK2", "result": 100, "unit": "%"}, {"measurement": "Percent Control", "setting": "PHKG2", "result": 100, "unit": "%"}, {"measurement": "effect on antibody-dependent NK-cell-mediated cytotoxicity (ADCC)", "setting": "Mino cells", "result": "did not affect"}, {"measurement": "Percent Control", "setting": "CDK4", "result": 100, "unit": "%"}, {"measurement": "Percent Control", "setting": "PAK6", "result": 100, "unit": "%"}, {"measurement": "Percent Control", "setting": "PLK3", "result": 99, "unit": "%"}, {"measurement": "Percent Control", "setting": "CSNK1G1", "result": 95, "unit": "%"}, {"measurement": "Percent Control", "setting": "RET(V804M)", "result": 68, "unit": "%"}, {"measurement": "median survival time", "setting": "[3]; 50 mg/kg/day p.o.", "result": 42, "unit": "days"}, {"measurement": "median survival time", "setting": "[3]; 150 mg/kg/day p.o.", "result": 63, "unit": "days"}, {"measurement": "Percent Control", "setting": "PRKD1", "result": 100, "unit": "%"}, {"measurement": "Percent Control", "setting": "FGFR2", "result": 77, "unit": "%"}, {"measurement": "Percent Control", "setting": "PLK2", "result": 100, "unit": "%"}, {"measurement": "Percent Control", "setting": "SRPK1", "result": 100, "unit": "%"}, {"measurement": "Percent Control", "setting": "DCAMKL1", "result": 100, "unit": "%"}, {"measurement": "Percent Control", "setting": "NLK", "result": 100, "unit": "%"}, {"measurement": "Percent Control", "setting": "CSNK1A1", "result": 100, "unit": "%"}, {"measurement": "Percent Control", "setting": "ERK5", "result": 100, "unit": "%"}, {"measurement": "Percent Control", "setting": "YES", "result": 17, "unit": "%"}, {"measurement": "Percent Control", "setting": "[4]", "result": 100, "unit": "%"}, {"measurement": "Percent Control", "setting": "CAMKK2", "result": 100, "unit": "%"}, {"measurement": "Percent Control", "setting": "GRK7", "result": 100, "unit": "%"}, {"measurement": "Percent Control", "setting": "MST1", "result": 100, "unit": "%"}, {"measurement": "Percent Control", "setting": "CASK", "result": 100, "unit": "%"}, {"measurement": "Percent Control", "setting": "IRAK1", "result": 100, "unit": "%"}, {"measurement": "Percent Control", "setting": "TNK2", "result": 64, "unit": "%"}, {"measurement": "Percent Control", "setting": "PIP5K1A", "result": 96, "unit": "%"}]}
